Laboratory results from patent US20230090255A1, “MAGL INHIBITOR, PREPARATION METHOD THEREFOR AND USE THEREOF” (LUNAN PHARMACEUTICAL GROUP CORPORATION, priority 2019, published 2023).

Assays:
[1] = biological target: T1, recombinant human protein MAGL (Homo sapiens, UniProt Q99685); assay: MAGL enzyme analysis (Cayman MAGL inhibitor screening kit); type: biochemical; settings: 4-nitrophenylacetic acid substrate, absorbance 410 nm, read-out: MAGLXIC50
T1 construct: purchased Cayman
T1 sequence (Q99685 1-303): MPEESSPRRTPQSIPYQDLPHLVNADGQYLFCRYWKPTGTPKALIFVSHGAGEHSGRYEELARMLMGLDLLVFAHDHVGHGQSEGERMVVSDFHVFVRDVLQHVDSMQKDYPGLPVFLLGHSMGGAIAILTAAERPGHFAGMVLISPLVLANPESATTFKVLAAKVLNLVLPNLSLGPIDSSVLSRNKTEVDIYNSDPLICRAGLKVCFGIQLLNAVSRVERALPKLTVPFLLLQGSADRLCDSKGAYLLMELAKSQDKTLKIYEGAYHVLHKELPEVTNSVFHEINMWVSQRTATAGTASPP
Protocol: 150 µL 1Xassay buffer, 10 µL recombinant human protein MAGL and 10 µL different concentrations of MAGL inhibitors (six points within 1 nM to 1000 nM) were added to per well of a 96-well plate. JZL195 (a positive control inhibitor) served as a positive control well, after incubation for 5 min at room temperature, per well was added with 10 µL MAGL substrate, and […] were vibrated for 10 s and placed for 10 min at room temperature, then an absorbance was detected at 410 nm. […] Graphad Prism 5.0 was taken to calculate IC50 curves fitting each inhibitor.

[2] = Tissue distribution test in mice; type: in vivo; parameters: content in the brain (tissue distribution): unit not given here; settings: 16 mg/kg subcutaneous injection
[3] = tested on: reserpine-induced mice depression; assay: Reserpine-induced mice depression; type: in vivo, ICR mouse; parameters: Awakening / Finger contact / Head touch / Fear / Autonomic activity / Eyelid closure / Upright: scale not given here; settings: for Autonomic activity / Awakening / Eyelid closure / Fear / Finger contact / Head touch / Upright: 2 h after reserpine 4 mg/kg
Protocol: • Species: ICR mouse • Microbiological level: SPF • Quantity and sex of the animals purchased: male: 75; female: 75 • Quantity and sex of the animals used: male: 75; female: 75 • Body weight: 13-18 g when accepted
Group design: there were 50 pieces for each batch of animals and 3 batches in total; each batch of animals were randomly divided into 5 groups; low, middle and high-dose groups of the samples for test, blank control group and model group; a sample for test was tested per batch.
3.1 Animals were administrated via subcutaneous injection per day with doses of 4, 8 and 16 mg/kg for 6 d in total. 2 h later after the final administration, each animal was subcutaneously injected with 4 mg/kg reserpine except the blank control group; afterwards, indicators, such as, awakening, finger contact, fear, head touch, autonomic activity, upright and eyelid closure were determined 2 h later.
Data statistics and analysis were completed via a computer by SPSS 17.0 software and office 2016, and data statistics was inspected by Kruskal-Wallis. If the Kruskal-Wallis inspection result is significant ((P<0.05), multiple comparison inspection is further performed by a Mann-Whitney U nonparametric test method.

ulcerative colitis mice = assay: Mice ulcerative colitis (DSS); type: in vivo, BALB/c mice; settings: DSS mice, 100 mg/kg ig
Text: Healthy male SPF-level BALB/c mice (8-week old and body mass: (20±2) g).
Modeling: the mice were randomly divided into […] at the end of the quarantine, 10 pieces for each group. The mice in the normal group drank normal water freely, and the rest groups of mice drank 1.0%-1.5% DSS solution freely for modeling, 7 d later after modeling, the mice in the modeling group drank normal water freely for 7 d, and 14 d served as a modeling period for four continuous periods, and the mice in the modeling group were administered at the same time.
End point of the experiment: experimental administration was performed for four periods, and dissection was performed on the 3rd and 4th day of the recovery period of the 4th period.
Test indicators: the mice were weighed twice a week after the beginning of the administration; diarrhea and hematochezia of the mice were observed, and times of hematochezia were recorded.
At the end of the experiment, the mice were dissected and weighed, and narcotized to take blood, then serum was preserved at -80° C. Spleen was taken and weighed to calculate the spleen index. The content of IL-1β in serum was detected via ELISA. Colorectum was cut and taken to measure the length of colorectum, then immobilized by formaldehyde and dyed by HE to detect the pathological change.

[4] = tested on: mice with inflammatory pain; assay: Pain threshold of mice with inflammatory pain (complete Freund's adjuvant); type: in vivo, SD mice; settings: complete Freund's adjuvant paw model, positive control 10 mg/kg ig once per day
Protocol: […] (180±20) g were injected with a complete Freund’s adjuvant (50 µL/piece) at the right rear plantar of mice, and mice in the control group were injected with the corresponding volume of 0.5% sodium carboxymethylcellulose to establish a paw edema inflammatory pain model. After modeling, the mice were administered for 7 d continuously, and administered intragastrically once per day. Pain thresholds (s) of the mice were respectively determined on the 1st, 3rd and 7th day before administration and after modeling at different periods of time.
Grouping and administration were the same as those of Example 40.

[5] = tested on: mice writhing caused by acetic acid; assay: Mice writhing caused by acetic acid; settings: positive control 10 mg/kg ig
Protocol: Each compound was prepared into a suspension by 0.5% sodium carboxymethylcellulose respectively, and then set according to the dose, and each administration group was administered intragastrically; the model group was administered intragastrically an equal volume of 0.5% sodium carboxymethylcellulose.
Mice were intraperitoneally injected with acetic acid to cause a large area and more lasting painful stimuli in deep enterocoelia, causing mice to produce writhing responses. After being administered for 1 h, each dose group was intraperitoneally injected with 0.7% acetic acid-normal saline solution (0.1 ml/10 g).
The time (pain latent time) that the mice started to appear writhing after being intraperitoneally injected with acetic acid was recorded.
The writhing response times of each mouse within 20 min were recorded after injecting acetic acid to cause pain, and then, the writhing inhibition ratio of each administration group was calculated.
Writhing inhibition ratio = [(writhing times of the control group -writhing times of the administration group)/writhing times of the control group] × 100%
Experimental data is shown by x±s and subjected to variance analysis by SPSS 15.0 software.

[6] = tested on: mice pain response induced by hot plate; assay: Mice pain response induced by hot plate; type: in vivo, ICR mice; settings: hot plate 55°C, positive control 10 mg/kg ig 7 d
Protocol: Female ICR mice (20±2) g were placed on an intelligent hot plate at 55±0.5° C., and latency (s) that the plantar of mice touched the hot plate until the occurrence of a hind paws licking response served as a pain threshold indicator; the mice (response latency <5 s or >30 s) or jumping mice were eliminated.
Grouping and administration were the same as those in Example 40.
The mice were continuously administered intragastrically for 7 consecutive days; the pain threshold of each group of mice was respectively determined once at 30, 60, 90 and 120 min after the final administration; the pain threshold greater than 60 s was calculated by 60 s.

[7] = tested on: reserpine-induced mice migraine; assay: Reserpine-induced mice migraine; type: in vivo, ICR mice
Protocol: The mice in the blank control group and model group were administered intragastrically via a solvent from the 5th day after modeling, and the rest groups of mice were respectively administered corresponding medicaments and doses for intragastric administration for 10 consecutive days; 1 h later after the final administration, the mice were weighed; blood was taken at inner canthus to detect blood coagulation time; whole blood was taken, and cerebrum was taken on an ice and preserved at -20° C. for the subsequent experiment.
Behavioral test: tail suspension activity was performed; the position 1 cm away from the tail of the mice was glued by an adhesive tape on the 9th day of the test, and the adhesive tape was penetrated by a steel needle, and hung in a dark box such that the mice were hung upside down; then the mice struggling times (total number of overturning from hanging) within 2 min were observed.
The mice were weighed 1 h later after the final administration; blood of inner canthus was taken via a capillary to detect the blood coagulation time.
Blood was taken to detect the content of 5-HT in serum via high-performance liquid chromatography. Cerebrum was taken on an ice and precooled and cleaned slightly with 0.5% sodium carboxymethylcellulose, and then sucked dry with a filter paper, and placed into a cryogenic tube, and preserved at -20° C. for further use, then the content of 5-HT in brain tissues was detected by high performance liquid chromatography.
5-HT test method: a sample was precipitated with 10% perchloric acid solution according to 1:1, and then centrifuged to take supernatant for test. Chromatographic conditions: the chromatographic column is a SHIMADZU VP-ODS C18 column (250*4.6 mm, 5 um), the mobile phase is a methanol-0.01 mol/L potassium acetate buffer solution (10:90, V/V, PH is adjusted to 4.00 with 0.2 mol/L citric acid) for gradient elution; the column temperature is 25° C., flow rate is 1.00 ml/min and test wavelength is 275 nm.

With O=C(Nc1ccccc1)C1CCN(C(=O)c2ccc(Oc3ccccc3)cc2)CC1 [MAGLZ-II-01] the IC50 [1] was 0.045 µM, the “content in the brain (tissue distribution)” value ([2]; 1.0 h) was 0 and the “content in the brain (tissue distribution)” value ([2]; 2.0 h) was 0.6. For the same molecule, the “content in the brain (tissue distribution)” value ([2]; 5.0 h) was 0.9.

In the case of Cc1cc(C)cc(NC(=O)C2CCN(C(=O)c3ccc(Oc4ccccc4)cc3)CC2)c1 [MAGLZ-II-02], the IC50 [1] is reported as 0.027 µM, the “content in the brain (tissue distribution)” value ([2]; 1.0 h) is reported as 0 and the “content in the brain (tissue distribution)” value ([2]; 2.0 h) is reported as 1.2. The “content in the brain (tissue distribution)” value ([2]; 5.0 h) was 3.7.

With COc1cccc(NC(=O)C2CCN(C(=O)c3ccc(Oc4ccccc4)cc3)CC2)c1 [MAGLZ-II-03] the IC50 [1] was 0.749 µM.

Molecule CCCC(=O)Oc1cccc(C(=O)N2CCC(C(=O)Nc3cccc(Cl)c3)CC2)c1 [MAGLZ-II-11F] has an IC50 [1] of 0.126 µM.

In the case of N[C@H](Cc1ccc(O)cc1)C(=O)Oc1cccc(C(=O)N2CCC(C(=O)Nc3cccc(Cl)c3)CC2)c1 [MAGLZ-II-11J], the IC50 [1] is reported as 1.6 µM.

With COc1cccc(C(=O)N2CCC(C(=O)Nc3cccc(Cl)c3)CC2)c1 [MAGLZ-II-14] the IC50 [1] was 0.333 µM.

With O=C(Nc1cccc(Cl)c1)C1CCN(C(=O)c2ccc(Oc3ccccc3)cc2)CC1 [MAGLZ-II-16] the “effect on reserpine-induced depression (conclusion)” value ([3]; 4, 8 and 16 mg/kg sc 6 d) was “has a certain effect”, the Autonomic activity ([3]; high dose 16 mg/kg sc 6 d) was 0.6±0.6 and the Awakening ([3]; high dose 16 mg/kg sc 6 d) was 2±0. The Eyelid closure ([3]; high dose 16 mg/kg sc 6 d) was 0±0, the Fear ([3]; high dose 16 mg/kg sc 6 d) was 0±0 and the Finger contact ([3]; high dose 16 mg/kg sc 6 d) was 1.6±0.8. For the same molecule, the Head touch ([3]; high dose 16 mg/kg sc 6 d) was 0.8±0.98, the Upright ([3]; high dose 16 mg/kg sc 6 d) was 0.4±1.2 and the Autonomic activity ([3]; low dose 4 mg/kg sc 6 d) was 0±0. The Awakening ([3]; low dose 4 mg/kg sc 6 d) was 2±0, the Eyelid closure ([3]; low dose 4 mg/kg sc 6 d) was 0±0 and the Fear ([3]; low dose 4 mg/kg sc 6 d) was 0±0. For the same molecule, the Finger contact ([3]; low dose 4 mg/kg sc 6 d) was 1.4±0.92, the Head touch ([3]; low dose 4 mg/kg sc 6 d) was 0.4±0.8 and the Upright ([3]; low dose 4 mg/kg sc 6 d) was 0±0. For the same molecule, the Autonomic activity ([3]; middle dose 8 mg/kg sc 6 d) was 0.2±0.6, the Awakening ([3]; middle dose 8 mg/kg sc 6 d) was 1.8±0.6 and the Eyelid closure ([3]; middle dose 8 mg/kg sc 6 d) was 0±0. The Fear ([3]; middle dose 8 mg/kg sc 6 d) was 0±0, the Finger contact ([3]; middle dose 8 mg/kg sc 6 d) was 1.2±0.98 and the Head touch ([3]; middle dose 8 mg/kg sc 6 d) was 0.8±0.98. The Upright ([3]; middle dose 8 mg/kg sc 6 d) was 0±0, the “content in the brain, ranking of the test substances” value [2] was “highest” and the “content in the brain (tissue distribution)” value ([2]; 1.0 h) was 0. The “content in the brain (tissue distribution)” value ([2]; 2.0 h) was 32.8 and the “content in the brain (tissue distribution)” value ([2]; 5.0 h) was 16.9.

Work on O=C(Nc1ccc(Cl)c(Cl)c1)C1CCN(C(=O)c2ccc3ccccc3c2)CC1 [MAGLZ-II-24] yielded an IC50 [1] of 0.275 µM.

Molecule O=C(Nc1cc(Cl)cc(Cl)c1)C1CCN(C(=O)c2ccc3ccccc3c2)CC1 [MAGLZ-II-25] has an IC50 [1] of 0.139 µM.

Work on O=C(Nc1cccc(Cl)c1)C1CCN(C(=O)c2ccc3cc(O)ccc3c2)CC1 [MAGLZ-II-29] yielded an IC50 [1] of 0.252 µM.

O=C(c1cccc(O)c1)N1CCC(c2nc3cc(Cl)ccc3o2)CC1 [MAGLZ-II-30] gave an IC50 [1] of 0.011 µM.

In the case of Nc1ccc(O)c(C(=O)O)c1 [Mesalazine, reference compound], the “Total times of hematochezia within the four periods” value (ulcerative colitis mice) is reported as 32.80±4.96, the Colon length (ulcerative colitis mice; four periods) is reported as 6.66±0.68 cm and the IL-1 content (ulcerative colitis mice; serum, ELISA) is reported as 48.33 ± 6.49 pg/mL.

With O=C(O)Cc1ccccc1Nc1c(Cl)cccc1Cl [Positive medicament, diclofenac sodium, reference compound] the Pain threshold ([4]; 0 d) was 12.71 ± 2.55 s, the Pain threshold ([4]; 1 d) was 6.38±0.91^∗ s and the Pain threshold ([4]; 3 d) was 8.05±1.23^∗ s. The Pain threshold ([4]; 7 d) was 9.00±0.911^∗ s, the Writhing times ([5]; 1 h before 0.7% acetic acid ip, within 20 min) was 24.5±12.9 and the Latent time ([5]; time to first writhing) was 358.5 ± 172.7 s. It also gave an Inhibition ratio ([5]; writhing inhibition) of 37.7%, a Pain threshold ([6]; 30 min after final administration) of 22.32 ± 6.76 s and a Pain threshold ([6]; 60 min) of 24.34 ± 8.19 s. It also gave a Pain threshold ([6]; 90 min) of 22.64 ± 6.48 s and a Pain threshold ([6]; 120 min) of 22.52 ± 6.91 s.

With CN(C)CCc1c[nH]c2ccc(C[C@H]3COC(=O)N3)cc12 [Zolmitriptan, reference compound] the Blood coagulation time ([7]; reserpine 0.2 mg/kg sc mice, 0.5 mg/kg ig 10 d, 1 h after final administration) was 185.12±38.86 S, the “brain tissue 5-HT” value ([7]; reserpine mice, 0.5 mg/kg ig 10 d) was 1.93 ± 0.37 nmol/g and the “Times of tail suspension (struggling times within 2 min)” value ([7]; reserpine mice, 0.5 mg/kg ig, 9th day) was 18.13 ± 3.94.
